Experimental data reported in patent publication US20110105550A1 (SALIX PHARMACEUTICALS, LTD., priority 2008, published 2011).

Tests used:
Assay type in all cases: physicochemical
[1] = Stressing under various relative humidities (RH), solid form by XRPD; conditions: for RH stability: solid form after exposure, 58% RH / RH stability: solid form after exposure, 75% RH: duration not printed in Table 1, am = amorphous
From the text: The jar was sealed and stored at either ambient temperature or in an oven at elevated temperature.

[2] = Automated moisture sorption/desorption (moisture balance)
Description: Moisture sorption/desorption data were collected on a VTI SGA-100 Vapor Sorption Analyzer. Sorption and desorption data were collected over a range of 5% to 95% relative humidity (RH) at 10% RH intervals under a nitrogen purge. Samples were not dried prior to analysis. Equilibrium criteria used for analysis were less than 0.0100% weight change in 5 minutes, with a maximum equilibration time of 3 hours if the weight criterion was not met. Data were not corrected for the initial moisture content of the samples. NaCl and PVP were used as calibration standards.

[3] = Rifaximin drying experiments, solid form by XRPD; conditions: for Solid form after vacuum drying: vacuum dried (Table 1 column)

Structure (SMILES): CO[C@H]1/C=C/O[C@@]2(C)Oc3c(C)c(O)c4c(O)c(c5c(nc6cc(C)ccn65)c4c3C2=O)NC(=O)/C(C)=C\C=C\[C@H](C)[C@H](O)[C@@H](C)[C@@H](O)[C@@H](C)[C@H](OC(C)=O)[C@@H]1C [Form α, reference compound]
- Final Form (XRPD) ([1]; P2O5, 4 days): α dry

Structure (SMILES): CO[C@H]1/C=C/O[C@@]2(C)Oc3c(C)c(O)c4c(O)c(c5c(nc6cc(C)ccn65)c4c3C2=O)NC(=O)/C(C)=C\C=C\[C@H](C)[C@H](O)[C@@H](C)[C@@H](O)[C@@H](C)[C@H](OC(C)=O)[C@@H]1C [Form α-dry]
- Post-moisture sorption/desorption XRPD form ([2]; sorption from 5% RH to 95% RH, desorption from 95% RH to 5% RH, listed as α dry): α dry
- XRPD Form after drying ([3]; vac oven 50° C., 1 day): α dry
- XRPD Form after drying ([3]; vac oven 50° C., 1 day, vac oven 60° C.): α dry
- XRPD Form after drying ([3]; vac oven 60-65° C., 3 days, listed as α dry): α dry
- Solid form after vacuum drying ([3]; listed as α dry): α dry
- Final Form (XRPD) ([1]; 33% RH, 2 days): α
- Final Form (XRPD) ([1]; 33% RH, 7 days): α
- Final Form (XRPD) ([1]; 43% RH, 4 days): α + β
- Final Form (XRPD) ([1]; 43% RH, 11 days): β + (α)
- Final Form (XRPD) ([1]; 58% RH, 2 days): β
- RH stability: solid form after exposure, 58% RH ([1]; 58% RH, listed as α dry): β
- Final Form (XRPD) ([1]; 75% RH, 2 days): β
- RH stability: solid form after exposure, 75% RH ([1]; 75% RH, listed as α dry): β
- Final Form (XRPD) ([1]; 94% RH, 2 days): β

Structure (SMILES): CO[C@H]1/C=C/O[C@@]2(C)Oc3c(C)c(O)c4c(O)c(c5c(nc6cc(C)ccn65)c4c3C2=O)NC(=O)/C(C)=C\C=C\[C@H](C)[C@H](O)[C@@H](C)[C@@H](O)[C@@H](C)[C@H](OC(C)=O)[C@@H]1C [Form β-1]
- Final Form (XRPD) ([1]; 33% RH, 4 days): β
- Final Form (XRPD) ([1]; 58% RH, 3 days): β + peak @4.87 °2θ
- RH stability: solid form after exposure, 58% RH ([1]; 58% RH, listed as β-1): β + pk
- Final Form (XRPD) ([1]; 75% RH, 3 days): β
- RH stability: solid form after exposure, 75% RH ([1]; 75% RH, listed as β-1): β
- Final Form (XRPD) ([1]; 94% RH, 3 days): β
- RH stability: solid form after exposure, 94% RH ([1]; 94% RH, duration not given): β

Structure (SMILES): CO[C@H]1/C=C/O[C@@]2(C)Oc3c(C)c(O)c4c(O)c(c5c(nc6cc(C)ccn65)c4c3C2=O)NC(=O)/C(C)=C\C=C\[C@H](C)[C@H](O)[C@@H](C)[C@@H](O)[C@@H](C)[C@H](OC(C)=O)[C@@H]1C [Form β-2]
- XRPD Form after drying ([3]; vac oven, 40° C., 1 day, listed as β-2): α dry
- Solid form after vacuum drying ([3]; listed as β-2): α dry
- Final Form (XRPD) ([1]; under N2 atmosphere, 20% RH, 3 days): α^d and α

Structure (SMILES): CO[C@H]1/C=C/O[C@@]2(C)Oc3c(C)c(O)c4c(O)c(c5c(nc6cc(C)ccn65)c4c3C2=O)NC(=O)/C(C)=C\C=C\[C@H](C)[C@H](O)[C@@H](C)[C@@H](O)[C@@H](C)[C@H](OC(C)=O)[C@@H]1C [Form γ, reference compound]
- wt loss from 95 to 5% RH ([2]; desorption 95 to 5% RH): 11.7%
- wt loss upon equilibration at 5% RH ([2]; equilibration at 5% RH): 2.4%
- Hygroscopicity ([2]; moisture balance): hygroscopic
- wt gain from 5 to 95% RH ([2]; sorption 5 to 95% RH): 10.8%
- XRPD Form after drying ([3]; vac oven, ambient, 1 day): remained unchanged

Structure (SMILES): CO[C@H]1/C=C/O[C@@]2(C)Oc3c(C)c(O)c4c(O)c(c5c(nc6cc(C)ccn65)c4c3C2=O)NC(=O)/C(C)=C\C=C\[C@H](C)[C@H](O)[C@@H](C)[C@@H](O)[C@@H](C)[C@H](OC(C)=O)[C@@H]1C [Form δ, reference compound]
- Final Form (XRPD) ([1]; P2O5, 3 days): ε dry
